Measurements taken from BindingDB's records for doi:10.1021/jm960093o (Agouron Pharmaceuticals, 1996).

Each compound was assayed against T1, Dimer of Gag-Pol polyprotein [489-587] (Human immunodeficiency virus 1, UniProt P12497) (assay: Protease Inhibition Assay). Details: pH 5.6; 37 °C.
T1 construct: 489-587
Protocol: Protease activity was measured by continuous chromogenic assay. The chromogenic peptide His-Lys-Ala-Arg-Val-Leu- (p-NO2-Phe)-Glu-Ala-Nleu-Ser (Bachem) was used as a substrate. Reactions were followed by the decrease of absorbance at 300 nm measured by spectrophotometer. Experimental results were analyzed by the nonlinear regression analysis, using a mathematical model for tight binding inhibitors.

| SMILES | IC50 [µM] |
| --- | --- |
| CC(C)(C)NC(=O)c1ccccc1CC(O)CSc1ccccc1NC(=O)C(C)(C)C (centres undefined) [N-tert-butyl-2-(3-{[2-(2,2-dimethylpropanamido)phenyl]sulfanyl}-2-hydroxypropyl)benzamide] | > 200 |
| CC(C)(C)NC(=O)c1ccccc1NCC(O)Cc1ccc2ccccc2c1C(=O)NC(C)(C)C (centres undefined) [N-tert-butyl-2-(3-{[2-(tert-butylcarbamoyl)phenyl]amino}-2-hydroxypropyl)naphthalene-1-carboxamide] | 120 |
| CC(C)(C)NC(=O)c1ccccc1SCC(O)c1ccccc1C(=O)NC(C)(C)C (centres undefined) [N-tert-butyl-2-({2-[2-(tert-butylcarbamoyl)phenyl]-2-hydroxyethyl}sulfanyl)benzamide] | > 200 |
| CC(C)N1CCC(CC(O)CCc2ccc3ccccc3c2C(=O)NC(C)(C)C)=C(C(=O)NC(C)(C)C)C1 (centres undefined) [N-tert-butyl-4-{4-[1-(tert-butylcarbamoyl)naphthalen-2-yl]-2-hydroxybutyl}-1-(propan-2-yl)-1,2,5,6-tetrahydropyridine-3-carboxamide] | 70 |
